From PubChem BioAssay AID1963969 (Molecular Pharmacology Branch, DTP, NCI, 2024)
Blank lines part the entries; values can stand above or below the compound they belong to.

System: 817829-284-R-J1-PDC multi-cell spheroid viability
Assay: Anticancer human tumor 817829-284-R-J1-PDC patient-derived colon adenocarcinoma cell line growth inhibition [PI3K]
Conditions: for IC50: curve of first compound; for viability, T/C: stronger effect = lower value
Text: Combinatorial screen of targeted agents with the PI3K inhibitors inavolisib, alpelisib, duvelisib, and copanlisib in multi-cell type tumor spheroids
A high-throughput screen of multi-cell type tumor spheroids was designed to identify active combinations of targeted small molecules and PI3K pathway inhibitors. Complex spheroids include a stromal component modeled by human endothelial cells (HUVEC) and fibroblasts modeled by human mesenchymal stem cells (MSCs). The concentration ranges selected for each drug and investigational agent were based upon clinically achievable concentrations if the clinical Cmax of the agent was known.
Compounds. The drugs and investigational agents: inavolisib (NSC800729), alpelisib (NSC765974), duvelisib (NSC772469), copanlisib (NSC816437), ipatasertib (NSC767898), afuresertib (NSC778305), talazoparib (NSC767125), sapanisertib (NSC764658), selumetinib (NSC741078), tovorafenib (DAY101, NSC766906), vemurafenib (NSC761431), ravoxertinib (NSC781343), sotorasib (NSC818433), MRTX1133 (NSC 836407), abemaciclib (NSC 768073), palbociclib (NSC758247), venetoclax (NSC 766270), SY5609 (NSC837396), enzalutamide (NSC755605), and darolutamide (NSC825331), were obtained from the National Cancer Institute (NCI) Developmental Therapeutics Program Chemical Repository. The FDA-approved anticancer drug set is available from the NCI Developmental Therapeutics Program. […] The stock solutions were prepared in dimethyl sulfoxide (DMSO, Sigma-Aldrich, St. Louis, MO, cat. D2650) at 800-fold the tested concentration and stored at -70 degrees C prior to their use. All drugs and investigational agents were tested over a range starting from a high concentration at or near the clinical Cmax and decreasing in half-log increments. If the clinical Cmax for an agent had not been determined, the highest concentration tested was 10 microM.
Cell Culture. All cells were maintained in an incubator at 37 degrees C and 5% CO2 with 95% humidity. The PDC lines were cultured according to standard operating procedures established by the NCI PDMR (https://pdmr.cancer.gov/sops/default.htm). All PDCs were thawed and cultured in Matrigel-coated flasks prepared with a working solution of 1X Ham's F-12 nutrient mix, without supplementation (Invitrogen, Waltham, MA, cat. 11765054), 100 U/mL penicillin-streptomycin (Invitrogen, cat. 15140122), and 2.5% Matrigel (Corning Inc., Corning, NY, cat. 354248) for the first three passages. The 354836-022-R-J1-PDC, 475296-252-R-J1-PDC, and 997726-040-R-J2-PDC lines were cultured in 6A media, which includes advanced DMEM/F-12 (Thermo Fisher Scientific, cat. 12634028), 10 mM HEPES (Thermo Fisher Scientific, cat. 15630080), 1X GlutaMAX supplement (Thermo Fisher Scientific, cat. 35050061), 0.1 mg/mL primocin (InvivoGen, San Diego, CA, cat. ant-pm-2), 10% defined fetal bovine serum, heat inactivated (HyClone Laboratories Inc., Logan, UT, cat. SH30070.03HI), 50% L-WRN conditioned media (ATCC, cat. CRL-3276), 1.25 mM N-Acetyl-L-cysteine (Sigma-Aldrich, cat. A9165), 10 mM nicotinamide (Sigma-Aldrich, cat. N0636), 1X B-27 supplement (Thermo Fisher Scientific, cat. 17504044), 1X N-2 supplement (Thermo Fisher Scientific, cat. 17502048), and 10 microM Y-27632 dihydrochloride (Tocris Bioscience, Bristol, United Kingdom, cat. 1254). The 624824-186-R-J2-PDC line was cultured in 6C/Colon 1B media, which includes all 6A media components plus 50 ng/mL human EGF recombinant protein (Thermo Fisher Scientific, cat. PHG0311). […]

[1] = second compound 0.00316 µM, first compound 0.0316 µM
[2] = second compound 0.00316 µM, first compound 0.1 µM
[3] = second compound 0.00316 µM, first compound 0.316 µM
[4] = second compound 0.00316 µM, first compound 1 µM
[5] = second compound 0.00316 µM, first compound 3.16 µM
[6] = second compound 0.00316 µM, first compound 10 µM
[7] = second compound 0.01 µM, first compound 0.0316 µM
[8] = second compound 0.01 µM, first compound 0.1 µM
[9] = second compound 0.01 µM, first compound 0.316 µM
[10] = second compound 0.01 µM, first compound 1 µM
[11] = second compound 0.01 µM, first compound 3.16 µM
[12] = second compound 0.01 µM, first compound 10 µM
[13] = second compound 0.0316 µM, first compound 0.0316 µM
[14] = second compound 0.0316 µM, first compound 0.1 µM
[15] = second compound 0.0316 µM, first compound 0.316 µM
[16] = second compound 0.0316 µM, first compound 1 µM
[17] = second compound 0.0316 µM, first compound 3.16 µM
[18] = second compound 0.0316 µM, first compound 10 µM
[19] = second compound 0.1 µM, first compound 0.0316 µM
[20] = second compound 0.1 µM, first compound 0.1 µM
[21] = second compound 0.1 µM, first compound 0.316 µM
[22] = second compound 0.1 µM, first compound 1 µM
[23] = second compound 0.1 µM, first compound 3.16 µM
[24] = second compound 0.1 µM, first compound 10 µM
[25] = second compound 0.316 µM, first compound 0.0316 µM
[26] = second compound 0.316 µM, first compound 0.1 µM
[27] = second compound 0.316 µM, first compound 0.316 µM
[28] = second compound 0.316 µM, first compound 1 µM
[29] = second compound 0.316 µM, first compound 3.16 µM
[30] = second compound 0.316 µM, first compound 10 µM
[31] = second compound 1 µM, first compound 0.0316 µM
[32] = second compound 1 µM, first compound 0.1 µM
[33] = second compound 1 µM, first compound 0.316 µM
[34] = second compound 1 µM, first compound 1 µM
[35] = second compound 1 µM, first compound 3.16 µM
[36] = second compound 1 µM, first compound 10 µM
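Further: spheroids exposed to agents for seven days before readout.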
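Wherever viability, T/C is given: percent of vehicle DMSO control viability which is 100%.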

- IC50 (second compound 0.00316 µM): < 0.0316 µM
- IC50 (second compound 0.01 µM): 0.106 µM
- IC50 (second compound 0.0316 µM): < 0.0316 µM
- IC50 (second compound 0.1 µM): 0.0416 µM
- IC50 (second compound 0.316 µM): < 0.0316 µM
- IC50 (second compound 1 µM): < 0.0316 µM
Structure (SMILES): Cn1ncc(Cl)c1-c1cc(C(=O)NC(CN)Cc2cccc(F)c2)sc1Cl (centres undefined) + CC(Nc1ccc2c(c1)OCCn1cc(N3C(=O)OCC3C(F)F)nc1-2)C(N)=O
- viability, T/C [1]: 73.2%
- viability, T/C [2]: 38.6%
- viability, T/C [3]: 22.8%
- viability, T/C [4]: 16.9%
- viability, T/C [5]: 16.3%
- viability, T/C [6]: 98.6%
- viability, T/C [7]: 81.4%
- viability, T/C [8]: 51%
- viability, T/C [9]: 22%
- viability, T/C [10]: 19.1%
- viability, T/C [11]: 14.4%
- viability, T/C [12]: 69%
- viability, T/C [13]: 49.4%
- viability, T/C [14]: 30.6%
- viability, T/C [15]: 14.9%
- viability, T/C [16]: 16.5%
- viability, T/C [17]: 14.7%
- viability, T/C [18]: 55.9%
- viability, T/C [19]: 56.3%
- viability, T/C [20]: 31.4%
- viability, T/C [21]: 21%
- viability, T/C [22]: 16.7%
- viability, T/C [23]: 14%
- viability, T/C [24]: 53.2%
- viability, T/C [25]: 46.4%
- viability, T/C [26]: 33.7%
- viability, T/C [27]: 16.8%
- viability, T/C [28]: 13.2%
- viability, T/C [29]: 11.9%
- viability, T/C [30]: 44.7%
- viability, T/C [31]: 34.4%
- viability, T/C [32]: 25.6%
- viability, T/C [33]: 16.7%
- viability, T/C [34]: 14.2%
- viability, T/C [35]: 12.3%
- viability, T/C [36]: 84.7%

- IC50 (second compound 0.00316 µM): 6.06 µM
- IC50 (second compound 0.01 µM): 4.63 µM
- IC50 (second compound 0.0316 µM): 7.18 µM
- IC50 (second compound 0.1 µM): 6.97 µM
- IC50 (second compound 0.316 µM): 3.89 µM
- IC50 (second compound 1 µM): > 10 µM
Structure (SMILES): Cn1nccc1Nc1nccc(-c2ccn(C(CO)c3ccc(Cl)c(F)c3)c(=O)c2)n1 (centres undefined) + CC(Nc1ccc2c(c1)OCCn1cc(N3C(=O)OCC3C(F)F)nc1-2)C(N)=O
- viability, T/C [1]: 87.6%
- viability, T/C [2]: 72.7%
- viability, T/C [3]: 88.3%
- viability, T/C [4]: 72.5%
- viability, T/C [5]: 83.5%
- viability, T/C [6]: 26.2%
- viability, T/C [7]: 70%
- viability, T/C [8]: 79.8%
- viability, T/C [9]: 76.7%
- viability, T/C [10]: 70.9%
- viability, T/C [11]: 64.1%
- viability, T/C [12]: 22.2%
- viability, T/C [13]: 90.6%
- viability, T/C [14]: 102%
- viability, T/C [15]: 90.2%
- viability, T/C [16]: 105%
- viability, T/C [17]: 98.5%
- viability, T/C [18]: 30.9%
- viability, T/C [19]: 58.9%
- viability, T/C [20]: 84.9%
- viability, T/C [21]: 92.3%
- viability, T/C [22]: 115%
- viability, T/C [23]: 87%
- viability, T/C [24]: 33%
- viability, T/C [25]: 110%
- viability, T/C [26]: 67.6%
- viability, T/C [27]: 80.5%
- viability, T/C [28]: 60.8%
- viability, T/C [29]: 65.7%
- viability, T/C [30]: 33.1%
- viability, T/C [31]: 55.9%
- viability, T/C [32]: 63.7%
- viability, T/C [33]: 72.4%
- viability, T/C [34]: 80.3%
- viability, T/C [35]: 75.9%
- viability, T/C [36]: 34.4%
